Experimental data published in patent US20260356856A1, “KRAS G12S AND G12C INHIBITORS” (MIRATI THERAPEUTICS, INC., priority 2023, published 2026).

Key:
[1] = molecular target: T1, KRas-mediated phosphorylation of ERK in A549 cells (Homo sapiens, UniProt P01116, G12S); test: Inhibition of KRas-mediated phosphorylation of ERK (HTRF), A549 cells; assay type: cell-based; conditions: HTRF pERK, 3 h incubation
T1 construct: pERK HTRF read-out

[2] = molecular target: T2, KRas-mediated phosphorylation of ERK in H358 cells (Homo sapiens, UniProt P01116, G12C); test: Inhibition of KRas-mediated phosphorylation of ERK (HTRF), H358 cells; assay type: cell-based; conditions: HTRF pERK, 3 h incubation
T2 construct: pERK HTRF read-out

KRas G12C = molecular target: T3, KRas G12C (Homo sapiens, UniProt P01116, G12C); test: KRas binding assay, TR-FRET displacement of Cy5 labelled tracer; conditions: 60-minute incubation at room temperature, 1% DMSO, pH 7.5
T3 construct: Biotinylated KRas (corresponding to amino acids 1-169, produced at Accelegan Inc.); biotin (biotinylated); purchased Accelegan Inc
Summary of the method: (§1)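 Each mutant protein, a biotinylated 1-169 construct, was combined with terbium streptavidin, tracer and compound. After sixty minutes at room temperature TR-FRET was recorded. POC data were fitted with a four-parameter IC50 model.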

KRas G12S = molecular target: T4, KRas G12S (Homo sapiens, UniProt P01116, G12S); test: as above; conditions: 60-minute incubation at room temperature, 1% DMSO, pH 7.5
T4 construct: Biotinylated KRas (corresponding to amino acids 1-169, produced at Accelegan Inc.); biotin (biotinylated); purchased Accelegan Inc
Summary of the method: as §1

KRas WT = molecular target: T5, KRas WT (Homo sapiens, UniProt P01116); test: as above; conditions: 60-minute incubation at room temperature, 1% DMSO, pH 7.5
T5 construct: Biotinylated KRas (corresponding to amino acids 1-169, produced at Accelegan Inc.); biotin (biotinylated); purchased Accelegan Inc
Summary of the method: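 Tb-streptavidin captured biotinylated KRas (1-169) in HEPES 50 mM, DTT 1 mM, MgCl2 5 mM, Tween-20 0.005% (pH 7.5), alongside tracer and compound at 1% final DMSO. One hour at RT, then read; IC50 from 4-parameter POC fit.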

[3] = molecular target: T6, KRas-mediated phosphorylation of ERK in MKN1 cells (Homo sapiens, UniProt P01116); test: Inhibition of KRas-mediated phosphorylation of ERK (HTRF), MKN1 cells; assay type: cell-based; conditions: MKN1 cells (KRas WT); HTRF pERK; 3 h incubation
T6 construct: pERK HTRF read-out
Procedure: Inhibition of KRas Phosphorylation of ERK (HTRF) by Exemplary Compounds of Formula (Ia) or (Ib)
Cisbio HTRF Advanced pERK Assay Catalog #64AERPEH • Cells: MKN1, PSN1 • Procedure: • 1. Day 1: Seed 6,000 cells/well −25 μl/well in 384-well white solid bottom plate; RPM1_10% FBS. Incubate overnight at 37 °C/5% CO2. • 2.

T3 sequence (P01116 1-169 isoform P01116-2 G12C): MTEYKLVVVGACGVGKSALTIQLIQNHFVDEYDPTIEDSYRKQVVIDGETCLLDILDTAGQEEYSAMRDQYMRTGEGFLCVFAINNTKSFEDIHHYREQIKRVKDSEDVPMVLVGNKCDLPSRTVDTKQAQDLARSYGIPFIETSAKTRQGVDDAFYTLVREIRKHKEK
T5 sequence (P01116 1-169 isoform P01116-2): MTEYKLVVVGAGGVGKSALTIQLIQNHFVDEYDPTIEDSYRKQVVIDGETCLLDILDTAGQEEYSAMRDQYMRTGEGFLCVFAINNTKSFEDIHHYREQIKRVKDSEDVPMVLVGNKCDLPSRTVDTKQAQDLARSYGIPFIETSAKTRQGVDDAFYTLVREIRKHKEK
T1 sequence (P01116 1-188 isoform P01116-2 G12S): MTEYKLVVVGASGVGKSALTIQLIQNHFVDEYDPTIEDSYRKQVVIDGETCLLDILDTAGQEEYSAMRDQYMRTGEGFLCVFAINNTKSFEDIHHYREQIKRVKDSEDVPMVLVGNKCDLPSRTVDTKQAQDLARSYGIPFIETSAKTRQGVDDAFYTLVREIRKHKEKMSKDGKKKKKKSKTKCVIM
T4 sequence (P01116 1-169 isoform P01116-2 G12S): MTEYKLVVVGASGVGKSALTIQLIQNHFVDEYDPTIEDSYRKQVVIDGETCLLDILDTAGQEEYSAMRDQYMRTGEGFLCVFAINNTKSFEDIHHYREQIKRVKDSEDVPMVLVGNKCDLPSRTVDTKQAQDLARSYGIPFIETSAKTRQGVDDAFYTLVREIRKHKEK
T6 sequence (P01116 1-188 isoform P01116-2): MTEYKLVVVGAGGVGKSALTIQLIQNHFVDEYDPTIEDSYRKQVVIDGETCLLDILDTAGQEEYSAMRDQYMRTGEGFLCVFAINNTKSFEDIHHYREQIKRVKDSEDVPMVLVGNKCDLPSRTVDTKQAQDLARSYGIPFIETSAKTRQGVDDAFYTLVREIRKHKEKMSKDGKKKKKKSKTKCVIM
T2 sequence (P01116 1-188 isoform P01116-2 G12C): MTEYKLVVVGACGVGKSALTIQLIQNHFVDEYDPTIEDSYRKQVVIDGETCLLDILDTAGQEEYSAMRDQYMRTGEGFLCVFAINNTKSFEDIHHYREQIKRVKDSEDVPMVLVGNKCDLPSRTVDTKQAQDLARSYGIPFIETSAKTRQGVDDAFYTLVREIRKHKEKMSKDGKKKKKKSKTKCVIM

| SMILES | IC50 [1] [nM] | IC50 [2] [nM] | IC50 (KRas G12C) [nM] | IC50 (KRas G12S) [nM] | IC50 (KRas WT) [nM] | IC50 [3] [nM] |
| --- | --- | --- | --- | --- | --- | --- |
| CCc1c(F)ccc2cc(O)cc(-c3ncc4c(N5CCC(C=O)CC5)nc(OC[C@@]56CCCN5C[C@H](F)C6)nc4c3F)c12 [Example 15, 1-(7-(8-ethyl-7-fluoro-3-hydroxynaphthalen-1-yl)-8-fluoro-2-(((2R,7aS)-2-fluorotetrahydro-1H-pyrrolizin-7a(5H)-yl)methoxy)pyrido[4,3-d]pyrimidin-4-yl)piperidine-4-carbaldehyde] | 149 | 22 | < 2 | 9 | 11 |  |
| CCc1c(F)ccc2cc(O)cc(N3CCc4c(nc(OC[C@@]56CCCN5C[C@H](F)C6)nc4N4CCCC(C(=O)n5ccc(C)n5)C4)C3)c12 (stereo partly drawn) [Example 144, (1-(7-(8-ethyl-7-fluoro-3-hydroxynaphthalen-1-yl)-2-(((2R,7aS)-2-fluorotetrahydro-1H-pyrrolizin-7a(5H)-yl)methoxy)-5,6,7,8-tetrahydropyrido[3,4-d]pyrimidin-4-yl)piperidin-3-yl)(3-methyl-1H-pyrazol-1-yl)methanone] | 5900 | 178 | 50 | 32 | 68 |  |
| CCc1c(F)ccc2cc(O)cc(-c3ncc4c(N5CCC(C(=O)n6ccc(C)n6)C5)nc(OC[C@@]56CCCN5C[C@H](F)C6)nc4c3F)c12 (stereo partly drawn) [Example 56, (1-(7-(8-ethyl-7-fluoro-3-hydroxynaphthalen-1-yl)-8-fluoro-2-(((2R,7aS)-2-fluorotetrahydro-1H-pyrrolizin-7a(5H)-yl)methoxy)pyrido[4,3-d]pyrimidin-4-yl)pyrrolidin-3-yl)(3-methyl-1H -pyrazol-1-yl)methanone] | 66 | 2800 | 13 | 17 | 69 |  |
| CCc1c(F)ccc2cc(O)cc(-c3ncc4c(N5CCC(C(=O)N(C)c6ccccn6)CC5)nc(OC[C@@]56CCCN5C[C@H](F)C6)nc4c3F)c12 [Example 62, 1-(7-(8-ethyl-7-fluoro-3-hydroxynaphthalen-1-yl)-8-fluoro-2-(((2R,7aS)-2-fluorotetrahydro-1H-pyrrolizin-7a(5H)-yl)methoxy)pyrido[4,3-d]pyrimidin-4-yl)-N-methyl-N-(pyridin-2-yl)piperidine-4-carboxamide] | 7060 | 8390 | 619 | 6330 | 64 |  |
| CCc1c(F)ccc2cc(O)cc(N3CCc4c(nc(OC[C@@]56CCCN5C[C@H](F)C6)nc4N4CCCC(C(=O)n5cccn5)CC4)C3)c12 (stereo partly drawn) [Example 143, (1-(7-(8-ethyl-7-fluoro-3-hydroxynaphthalen-1-yl)-2-(((2R,7aS)-2-fluorotetrahydro-1H-pyrrolizin-7a(5H)-yl)methoxy)-5,6,7,8-tetrahydropyrido[3,4-d]pyrimidin-4-yl)azepan-4-yl)(1H-pyrazol-1-yl)methanone] | 38 | 931 | 56 | 8 | 166 |  |
| CCc1c(F)ccc2cc(O)cc(-c3ncc4c(N5CCC(C(=O)Nc6ccccn6)CC5)nc(OC[C@@]56CCCN5C[C@H](F)C6)nc4c3F)c12 [Example 153, 1-(7-(8-ethyl-7-fluoro-3-hydroxynaphthalen-1-yl)-8-fluoro-2-(((2R,7aS)-2-fluorotetrahydro-1H-pyrrolizin-7a(5H)-yl)methoxy)pyrido[4,3-d]pyrimidin-4-yl)-N-(pyridin-2-yl)piperidine-4-carboxamide] | 4130 | 1760 | 439 | 642 | 138 |  |
| Cc1ccn(C(=O)[C@@H]2CCCN(c3nc(OC[C@@]45CCCN4C[C@H](F)C5)nc4c(F)c(-c5ccc(F)c6sc(N)c(C#N)c56)c(Cl)cc34)CC2)n1 (atropisomer, axis not shown; (aS)) [Example 172, 2-amino-4-((S)-6-chloro-8-fluoro-2-(((2R,7aS)-2-fluorotetrahydro-1H-pyrrolizin-7a(5H)-yl)methoxy)-4-((R)-4-(3-methyl-1H-pyrazole-1-carbonyl)azepan-1-yl)quinazolin-7-yl)-7-fluorobenzo[b]thiophene-3-carbonitrile] | 35 | 50 |  |  |  | 199 |
| CCc1c(F)ccc2cc(O)cc(-c3ncc4c(N5CCC(C(=O)Oc6ccc(F)c(F)c6)CC5)nc(OC[C@@]56CCCN5C[C@H](F)C6)nc4c3F)c12 [Example 40, 3,4-difluorophenyl 1-(7-(8-ethyl-7-fluoro-3-hydroxynaphthalen-1-yl)-8-fluoro-2-(((2R,7aS)-2-fluorotetrahydro-1H-pyrrolizin-7a(5H)-yl)methoxy)pyrido[4,3-d]pyrimidin-4-yl)piperidine-4-carboxylate] | > 10000 | 913 | 9 | 1250 | 729 |  |
| N#Cc1c(N)sc2c(F)ccc(-c3c(Cl)cc4c(N5CCN(S(=O)(=O)n6cnnc6)CC5)nc(OC[C@@]56CCCN5C[C@H](F)C6)nc4c3F)c12 [Example 187, 4-(4-(4-((4H-1,2,4-triazol-4-yl)sulfonyl)piperazin-1-yl)-6-chloro-8-fluoro-2-(((2R,7aS)-2-fluorotetrahydro-1H-pyrrolizin-7a(5H)-yl)methoxy)quinazolin-7-yl)-2-amino-7-fluorobenzo[b]thiophene-3-carbonitrile] | 1360 |  | 40 | 33 | 11 | 127 |
| CCc1c(F)ccc2cc(O)cc(-c3ncc4c(N5CCC(COC)(C(=O)n6ccc(C)n6)C5)nc(OC[C@@]56CCCN5C[C@H](F)C6)nc4c3F)c12 (stereo partly drawn) [Example 95, (1-(7-(8-ethyl-7-fluoro-3-hydroxynaphthalen-1-yl)-8-fluoro-2-(((2R,7aS)-2-fluorotetrahydro-1H-pyrrolizin-7a(5H)-yl)methoxy)pyrido[4,3-d]pyrimidin-4-yl)-3-(methoxymethyl)pyrrolidin-3-yl)(3-methyl-1H-pyrazol-1-yl)methanone] | 4220 |  | 257 | 1600 | 1080 | > 10000 |
| CCc1c(F)ccc2cc(O)cc(-c3ncc4c(N5CC6(C(=O)n7ccc(C)n7)CCCC5C6)nc(OC[C@@]56CCCN5C[C@H](F)C6)nc4c3F)c12 (stereo partly drawn) [Example 87, (6-(7-(8-ethyl-7-fluoro-3-hydroxynaphthalen-1-yl)-8-fluoro-2-(((2R,7aS)-2-fluorotetrahydro-1H-pyrrolizin-7a(5H)-yl)methoxy)pyrido[4,3-d]pyrimidin-4-yl)-6-azabicyclo[3.2.1]octan-1-yl)(3-methyl-1H-pyrazol-1-yl)methanone] | > 10000 |  | 365 | 1680 | 1580 | 4060 |
| CCc1c(F)ccc2cc(O)cc(-c3ncc4c(N5CC6CCC(C(=O)n7ccc(C)n7)C6C5)nc(OC[C@@]56CCCN5C[C@H](F)C6)nc4c3F)c12 (stereo partly drawn) [Example 104, (2-(7-(8-ethyl-7-fluoro-3-hydroxynaphthalen-1-yl)-8-fluoro-2-(((2R,7aS)-2-fluorotetrahydro-1H-pyrrolizin-7a(5H)-yl)methoxy)pyrido[4,3-d]pyrimidin-4-yl)octahydrocyclopenta[c]pyrrol-4-yl)(3-methyl-1H-pyrazol-1-yl)methanone] | 1580 |  | 295 | 176 | 77 | 931 |
| CCc1c(F)ccc2cc(O)cc(-c3ncc4c(N5C[C@@H](C)N(C(=O)n6ccc(C)n6)[C@H](C)C5)nc(OC[C@@]56CCCN5C[C@H](F)C6)nc4c3F)c12 [Example 86, ((2R,6R)-4-(7-(8-ethyl-7-fluoro-3-hydroxynaphthalen-1-yl)-8-fluoro-2-(((2R,7aS)-2-fluorotetrahydro-1H-pyrrolizin-7a(5H)-yl)methoxy)pyrido[4,3-d]pyrimidin-4-yl)-2,6-dimethylpiperazin-1-yl)(3-methyl-1H-pyrazol-1-yl)methanone] | 8960 |  | 3450 | 2200 | 2320 | 4230 |
| CCc1c(F)ccc2cc(O)cc(-c3ncc4c(N5CCN(C(=O)n6cccn6)CC5)nc(OC[C@@]56CCCN5C[C@H](F)C6)nc4c3F)c12 [Example 60, (4-(7-(8-ethyl-7-fluoro-3-hydroxynaphthalen-1-yl)-8-fluoro-2-(((2R,7aS)-2-fluorotetrahydro-1H-pyrrolizin-7a(5H)-yl)methoxy)pyrido[4,3-d]pyrimidin-4-yl)piperazin-1-yl)(1H-pyrazol-1-yl) methanone] | 2350 | 450 | 76 | 115 | 24 |  |
